Experimental data: the NIST ThermoML archive (doi:10.1016/j.jct.2019.03.023)
Several values for one entry are separate records, joined by “and”; a condition that tells them apart may be missing. Identical values can stand only once.

Test: molar heat capacity at constant volume
Details: Vacuum adiabatic calorimetry

CC(C)O [propan-2-ol]
Fluid (supercritical or subcritical phases)
Details	molar heat capacity at constant volume
314.29 K, Mass density=329.2 kg/m3	177.46 J/K/mol
314.52 K, Mass density=329.2 kg/m3	182.81 J/K/mol
314.8 K, Mass density=329.2 kg/m3	184.67 J/K/mol
315.05 K, Mass density=329.2 kg/m3	181.49 J/K/mol
315.3 K, Mass density=329.2 kg/m3	177.88 J/K/mol
315.42 K, Mass density=329.2 kg/m3	176.26 J/K/mol
315.61 K, Mass density=329.2 kg/m3	174.88 J/K/mol
315.8 K, Mass density=329.2 kg/m3	178.6 J/K/mol
317.44 K, Mass density=697.69 kg/m3	170.85 J/K/mol
317.57 K, Mass density=697.69 kg/m3	172.41 J/K/mol
317.7 K, Mass density=697.69 kg/m3	172.71 J/K/mol
317.95 K, Mass density=697.69 kg/m3	168.15 J/K/mol
318.07 K, Mass density=697.69 kg/m3	168.15 J/K/mol
318.2 K, Mass density=697.69 kg/m3	171.69 J/K/mol
318.32 K, Mass density=697.69 kg/m3	171.33 J/K/mol
318.45 K, Mass density=697.69 kg/m3	173.98 J/K/mol
318.57 K, Mass density=697.69 kg/m3	170.25 J/K/mol
318.7 K, Mass density=697.69 kg/m3	175.24 J/K/mol
331.87 K, Mass density=697.69 kg/m3	192 J/K/mol
332.06 K, Mass density=697.69 kg/m3	191.34 J/K/mol
332.12 K, Mass density=697.69 kg/m3	189.48 J/K/mol
332.24 K, Mass density=697.69 kg/m3	188.82 J/K/mol
332.36 K, Mass density=697.69 kg/m3	187.74 J/K/mol
332.48 K, Mass density=697.69 kg/m3	189.96 J/K/mol
332.6 K, Mass density=697.69 kg/m3	190.26 J/K/mol
332.72 K, Mass density=697.69 kg/m3	187.74 J/K/mol
332.85 K, Mass density=697.69 kg/m3	192.36 J/K/mol
333.03 K, Mass density=697.69 kg/m3	188.7 J/K/mol
340.8 K, Mass density=697.69 kg/m3	195.19 J/K/mol
340.92 K, Mass density=697.69 kg/m3	192.6 J/K/mol
341.04 K, Mass density=697.69 kg/m3	196.99 J/K/mol
341.16 K, Mass density=697.69 kg/m3	193.33 J/K/mol
341.28 K, Mass density=697.69 kg/m3	197.83 J/K/mol
341.4 K, Mass density=697.69 kg/m3	196.15 J/K/mol
341.52 K, Mass density=697.69 kg/m3	194.89 J/K/mol
341.64 K, Mass density=697.69 kg/m3	195.13 J/K/mol
341.76 K, Mass density=697.69 kg/m3	196.21 J/K/mol
341.91 K, Mass density=329.2 kg/m3	203.12 J/K/mol
342.08 K, Mass density=329.2 kg/m3	202.22 J/K/mol
342.19 K, Mass density=329.2 kg/m3	203.54 J/K/mol
342.32 K, Mass density=329.2 kg/m3	207.27 J/K/mol
342.49 K, Mass density=329.2 kg/m3	201.32 J/K/mol
342.67 K, Mass density=329.2 kg/m3	203.72 J/K/mol
342.79 K, Mass density=329.2 kg/m3	202.76 J/K/mol
342.91 K, Mass density=329.2 kg/m3	201.62 J/K/mol
343.03 K, Mass density=329.2 kg/m3	204.08 J/K/mol
355.67 K, Mass density=697.69 kg/m3	207.33 J/K/mol
355.78 K, Mass density=697.69 kg/m3	211.29 J/K/mol
355.9 K, Mass density=697.69 kg/m3	211.9 J/K/mol
356.02 K, Mass density=697.69 kg/m3	209.49 J/K/mol
356.13 K, Mass density=697.69 kg/m3	211.11 J/K/mol
356.25 K, Mass density=697.69 kg/m3	212.68 J/K/mol
356.37 K, Mass density=697.69 kg/m3	211.77 J/K/mol
356.48 K, Mass density=697.69 kg/m3	211.96 J/K/mol
369.05 K, Mass density=329.2 kg/m3	225.9 J/K/mol
369.16 K, Mass density=329.2 kg/m3	220.01 J/K/mol
369.28 K, Mass density=329.2 kg/m3	231.31 J/K/mol
369.39 K, Mass density=329.2 kg/m3	222.83 J/K/mol
369.5 K, Mass density=329.2 kg/m3	225.96 J/K/mol
369.67 K, Mass density=329.2 kg/m3	223.55 J/K/mol
369.84 K, Mass density=329.2 kg/m3	221.75 J/K/mol
369.96 K, Mass density=329.2 kg/m3	221.03 J/K/mol
370.07 K, Mass density=329.2 kg/m3	219.47 J/K/mol
370.24 K, Mass density=697.69 kg/m3	222.11 J/K/mol
370.36 K, Mass density=697.69 kg/m3	222.41 J/K/mol
370.47 K, Mass density=697.69 kg/m3	220.43 J/K/mol
370.58 K, Mass density=697.69 kg/m3	219.77 J/K/mol
370.7 K, Mass density=697.69 kg/m3	222.05 J/K/mol
370.81 K, Mass density=697.69 kg/m3	222.29 J/K/mol
370.92 K, Mass density=697.69 kg/m3	220.61 J/K/mol
371.04 K, Mass density=697.69 kg/m3	221.57 J/K/mol
378.45 K, Mass density=697.69 kg/m3	221.99 J/K/mol
378.57 K, Mass density=697.69 kg/m3	220.67 J/K/mol
378.68 K, Mass density=697.69 kg/m3	223.19 J/K/mol
378.79 K, Mass density=697.69 kg/m3	223.37 J/K/mol
378.9 K, Mass density=697.69 kg/m3	220.97 J/K/mol
379.01 K, Mass density=697.69 kg/m3	222.41 J/K/mol
379.24 K, Mass density=697.69 kg/m3	222.71 J/K/mol
379.35 K, Mass density=697.69 kg/m3	221.33 J/K/mol
379.46 K, Mass density=697.69 kg/m3	221.99 J/K/mol
379.57 K, Mass density=697.69 kg/m3	220.55 J/K/mol
379.68 K, Mass density=697.69 kg/m3	222.53 J/K/mol
379.79 K, Mass density=697.69 kg/m3	221.81 J/K/mol
379.9 K, Mass density=697.69 kg/m3	222.53 J/K/mol
380.02 K, Mass density=697.69 kg/m3	224.03 J/K/mol
380.13 K, Mass density=697.69 kg/m3	223.07 J/K/mol
380.24 K, Mass density=697.69 kg/m3	222.05 J/K/mol
380.35 K, Mass density=697.69 kg/m3	223.97 J/K/mol and 182.81 J/K/mol
380.42 K, Mass density=697.69 kg/m3	185.51 J/K/mol
380.56 K, Mass density=697.69 kg/m3	185.69 J/K/mol
380.68 K, Mass density=697.69 kg/m3	187.44 J/K/mol

Details	molar heat capacity at constant volume [J/K/mol]
380.35 K, Liquid	182.81
